From US12503448B2, “Antibacterial and antiparasitic quinoxaline-2,3-diamine derivatives” (University College Cardiff Consultants Limited, priority 2019, dated 2025) come the findings set out here.

For one series, the system named is S. aureus ATCC 29213. Nature of the series: In vitro antibacterial activity. The series is classed as cell-based. Particulars: Staphylococcus aureus, ATCC29213.
For another series, the system named is S. epidermidis NTCT11077. Briefly: In vitro antibacterial activity. The series is classed as cell-based. Conditions: Staphylococcus epidermidis.
The test system of a further series is MRSA ATCC 33591. Briefly: In vitro antibacterial activity. The series is classed as cell-based. Particulars: Staphylococcus aureus.
Series [1] concerns F. hepatica newly excysted juveniles (NEJs). Nature of the series: Newly excysted juveniles (NEJs) drug screen. The series is classed as cell-based, Fasciola hepatica. Set-up: scale not given here. Conditions: 10 μM, 72 h; higher score indicates lower worm activity. An outline of the steps: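 Italian-strain F. hepatica NEJs, 25 per well, exposed to compound at 10 μM (0.1% DMSO) for 72 h at 37 °C, 5% CO2. Each parasite scored for phenotype and motility; averaged over two replicates, higher score meaning lower worm activity.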

The test system of another series is S. mansoni adult worms. Nature of the series: Adult worm drug screen (WHO scoring, WormassayGP2). The series is classed as cell-based, Schistosoma mansoni. Conditions: for Selectivity Index Adult: HepG2 CC50 over adult worm EC50; for EC50: Schistosoma mansoni, adult worms. The gist of the method:
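Adult worms perfused from MF-1 mice 7 weeks after infection with 180 cercariae. Motility after drug exposure scored on the WHO-TDR 0–4 microscopic scale (0 = no movement, 4 = normal), checked by image-based motion analysis. Deposited eggs counted.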

Another series relates to B. cereus. Nature of the series: In vitro antibacterial activity. Particulars: Bacillus cereus. The series is classed as cell-based.
Series [2] can be described thus: Mouse pharmacokinetics, oral cassette dosing. The protocol:
Non-compartmental mouse pharmacokinetics (Male C57/BL6 Mouse, Fasted; 3 mice per group) were determined after oral administration of a nominal dose of 2.5 mg/kg of these formulations in cassettes (5 compounds/group) according to the protocols employed by WuXi (https://www.wuxiapptec.com; the CRO that conducted these studies).

Series [3] in a line: Metabolic stability in mouse liver microsomes. Conditions: for microsomal CLint at 1 μM: liver microsomes; for half-life at 1 μM: microsomes.
Series [4] is described as follows: Semi thermodynamic solubility. Particulars: thermodynamic from solid.
Setting [5] is: S. aureus ATCC 29213, read-out: MIC90.
[6] abbreviates: male, C57/BL6, mouse, plasma, po, 2.5 mg/kg.
[7] abbreviates: S. epidermidis NTCT11077, read-out: MIC90.
Setting [8] is: oral, nominal dose 2.5 mg/kg, cassette.

In brackets after ≈: the same amount, converted by molar mass. Like-named read-outs stand apart in the source and are kept apart here.

For `O=[N+]([O-])c1ccc2nc(Nc3cccc(Cl)c3)c(Nc3cccc(Cl)c3)nc2c1` [Compound 5, N^2, N^3-bis(3-chlorophenyl)-6-nitroquinoxaline-2,3-diamine], the MIC90 (in general, the lowest concentration that inhibits either 90% of growth or 90% of the strains tested, depending on the study) in the series on S. aureus ATCC 29213 (setting [5]) was less than 3.91 µg/mL; in the series with S. epidermidis NTCT11077 (NTCT11077), less than 62.5 µg/mL; against MRSA ATCC 33591 it was 3.91 µg/mL (≈ 9.17 µM); in the series on B. cereus, 125 µg/mL (≈ 293 µM). In series [1], the “Motility (M) Mean score” value was 4.20. Further, the “Phenotype (P) Mean score” value in series [1] is given as 4.70. Besides, in the series on S. mansoni adult worms, the “Selectivity Index Adult” value was 568. For the same compound, the EC50 (as a rule, the midpoint of the concentration-response curve) in the series with S. mansoni adult worms worked out at 12 nM.

The compound `O=[N+]([O-])c1ccc2nc(Nc3ccc(F)c(C(F)(F)F)c3)c(Nc3ccc(F)c(C(F)(F)F)c3)nc2c1` [Compound 7, N^2, N^3-bis(4-fluoro-3-(trifluoromethyl)phenyl)-6-nitroquinoxaline-2,3-diamine] came in with an MIC90 against S. aureus ATCC 29213 of 1.95 µg/mL (≈ 3.68 µM). The same compound showed an MIC90 in the series with S. epidermidis NTCT11077 (NTCT11077) of less than 62.5 µg/mL. Moreover, the MIC90 with MRSA ATCC 33591 is less than 3.91 µg/mL. For the same compound, in series [1], the “Motility (M) Mean score” value stood at 4.56 and the “Phenotype (P) Mean score” value is on record as 5.00. In the series with S. mansoni adult worms, the “Selectivity Index Adult” value is listed as 705 and the EC50 stood at 11 nM. Moreover, in series [2] (setting [6]), the AUC(0-t) (as a rule, the area under the concentration-time curve up to a stated or last time point) turned out to be 89.6 ng·h/mL; the peak level (Cmax) was 21.2 ng/mL; the MRT last (commonly a mean duration of stay, worked out from the concentration-time curve) stood at 4.75 h; the Tmax (as a rule, the time at which the peak concentration occurs) stood at 4 h. The compound further had an MIC90 with B. cereus of 125 µg/mL (≈ 236 µM).

For `O=[N+]([O-])c1ccc2nc(Nc3ccc(C(F)(F)F)cc3)c(Nc3ccc(C(F)(F)F)cc3)nc2c1` [Compound 11, 6-nitro-N^2, N^3-bis(4-(trifluoromethyl)phenyl)quinoxaline-2,3-diamine], in the series with S. aureus ATCC 29213 (setting [5]), the MIC90 was determined as 0.98 µg/mL (≈ 1.99 µM). Besides, in series [3], the microsomal CLint (in general, the rate of metabolic loss divided by the concentration) at 1 μM worked out at 0.134 µL/min/mg and the half-life – broadly, how long it takes for the measured level to halve – at 1 μM came to 172 h. Further, in the series with S. epidermidis NTCT11077 (setting [7]), the MIC90 was less than 62.5 µg/mL. Also, the solubility (thermodynamic) (in general, the concentration in solution at equilibrium with solid) in series [4] was 32.8 µM (≈ 16.2 µg/mL). The compound further registered an MIC90 in the series on MRSA ATCC 33591 of less than 3.91 µg/mL. For the same compound, in [1], the “Motility (M) Mean score” value is 4.17 and the “Phenotype (P) Mean score” value was found to be 4.28. For the same compound, in the series on S. mansoni adult worms, the “Selectivity Index Adult” value was 2320 and the midpoint of the response, the EC50, lay at 6.7 nM. This compound also gave a half-life in [2] (male, C57/BL6, mouse, in vivo, po, 2.5 mg/kg) of 3.74 h. In [2] (setting [6]), the AUC(0-inf) – broadly, total exposure, with the tail of the curve extrapolated – came to 444 ng·h/mL; the AUC(0-t) is 419 ng·h/mL; the Cmax – broadly, the highest concentration seen after dosing – worked out at 68.8 ng/mL; the MRT inf (as a rule, a mean duration of stay, worked out from the concentration-time curve) came to 7.84 h. For the same compound, in series [2] (setting [6]), the MRT last amounted to 6.5 h and the Tmax turned out to be 4 h. In [2] (setting [8]), the AUCExtra was found to be 1.82% and the AUMCExtra came to 6.77%. In the series with B. cereus (B. cereus, read-out: MIC90), the MIC90 is less than 62.5 µg/mL.

On to `COc1ccc(Nc2nc3ccc([N+](=O)[O-])cc3nc2Nc2ccc(OC)c(C(F)(F)F)c2)cc1C(F)(F)F` [Compound 12, N^2, N^3-bis(4-methoxy-3-(tritluoromethyl)phenyl)-6-nitroquinoxaline-2,3-diamine], for which the MIC90 in the series with S. aureus ATCC 29213 (setting [5]) is 62.5 µg/mL (≈ 113 µM). Also, in [3], the microsomal CLint at 1 μM was found to be 10.8 µL/min/mg and the half-life at 1 μM was 2.13 h. In the series with S. epidermidis NTCT11077 (setting [7]), the MIC90 is less than 62.5 µg/mL. Further, the solubility (thermodynamic) in series [4] was 4.09 µM (≈ 2.26 µg/mL). Moreover, the MIC90 against MRSA ATCC 33591 was 31.2 µg/mL (≈ 56.5 µM). Moreover, in [1], the “Motility (M) Mean score” value is reported as 4.45 and the “Phenotype (P) Mean score” value came to 4.70. Moreover, in the series with S. mansoni adult worms, the “Selectivity Index Adult” value is given as 664 and a half-maximal effect (EC50) was put at 8.5 nM. In addition, in series [2] (setting [6]), the AUC(0-t) was 77.8 ng·h/mL, the Cmax stood at 20.1 ng/mL, the MRT last stood at 4.76 h and the Tmax came to 4 h. Moreover, the MIC90 in the series on B. cereus (B. cereus, read-out: MIC90) was less than 62.5 µg/mL.
